pIC50: −log10 of the molar value.
What was measured:
[1] = tested on: 3T3-L1 preadipocyte; test: retinoic acid induced inhibition of 3T3-L1-preadipocyte differentiation, Oil Red O staining of lipid droplets; type: cell-based, mouse; conditions: for Oil Red O absorbance (OD minus blank), well1 / Oil Red O absorbance (OD minus blank), well2 / Oil Red O absorbance (OD minus blank), average: OD 492 nm; for Oil Red O absorbance (OD minus blank), well1 / Oil Red O absorbance (OD minus blank), well2: day 9; for Oil Red O absorbance (OD minus blank), average: day 9, control average 0.5263
Procedure: The effectiveness of the RAR alpha antagonists Compounds No. 2, 3 and 4 and the RAR pan antagonist Compound No. 1 in blocking the inhibitory effect of all-trans retinoic acid (ATRA) on 3T3-L1 preadipocyte differentiation was investigated.
In this experiment the “Oil Red O”-staining of lipid droplets is used as indicator of the degree of adipogenesis. After conveniently extraction of the dye from the lipid droplets the absorbance was measured with a microplate reader.
3T3-L1-cells (passage 7) of one flask (75 cm^2) were trypsinized by treating the adherent cells with 2 ml 0.25% Trypsin-EDTA. The reaction was stopped with fibroblast growth medium (DMEM/10% Newborn Calf Serum/1% Penicillin/Streptomycin) and 1 ml of this cellsuspension were added to each well of a 12-well-plate. Cells were incubated at 37° C./5% CO2 in an incubator.
One day after cells reach confluency the fibroblast growth medium was removed and adipogenesis initiation medium (DMEM/10% FBS/1 μM Dexamethasone/0.5 mM IBMX/1 μg/ml Insulin) was added into 2 wells (i.e., in duplicate) without further substances (control), into 2 wells with 0.1 μM ATRA+ alternative 1 μM of compound No. 4, Compound No. 2, Compound No. 3 and 1 into 2 wells with 0.1 μM ATRA.
After incubation for two days, the adipogenesis initiation medium was removed and 1.5 ml adipogenesis medium (DMEM/10% FBS/1 μg/ml Insulin) containing the substances as indicated above was added per well. After another three days of incubation, the medium was replaced by adipogenesis medium without any additional substances. The culture medium was replaced every 2 or 3 days.
Nine days after addition of adipogenesis initiation medium, the medium was removed from all wells. Cells were fixed and stained with Oil Red O as follows:
Fix the cells in 10% formalin in PBS, remove formalin, dry completely, wash with PBS, dry at room temperature; Prepare Oil red O working solution by diluting 3 parts Oil Red O stock solution with 2 parts dH2O; Add Oil red O working solution for 1 hour; Remove all Oil Red O and immediately add dH2O, wash with dH2O until water is colourless; Wash with 60% isopropanol, dry completely at room temperature; elute Oil red O by adding 60% isopropaniol/4% Triton X-100 solution for 1.5 hours; transfer to 96 well plate; measure absorption (optical density—OD) at 492 nm (Tecan Spectraflour plus)
The absorbance is reported in Table 2 and FIG. 1 as the difference of the observed OD of extracted dye at 492 nm and a blank well OD value.

[2] = tested on: bovine SVF cells; test: retinoic acid induced inhibition of the differentiation of bovine SVF cells to adipocytes, Oil Red O staining; type: cell-based; conditions: for Oil Red O absorbance (OD minus blank), well1 / Oil Red O absorbance (OD minus blank), well2 / Oil Red O absorbance (OD minus blank), average / lipid accumulation compared with control cells: bovine SVF cells; for Oil Red O absorbance (OD minus blank), well1 / Oil Red O absorbance (OD minus blank), well2 / Oil Red O absorbance (OD minus blank), average: OD 530 nm, day 13; for Oil Red O absorbance (OD minus blank), average: control average 0.4465
Procedure: The efficiency of the RAR antagonists compounds No. 1, 3, 4 and 5 in blocking the antiadipogenic effect of ATRA on bovine cells was investigated. The cells used in this experiment were from a primary culture of the stromal-vascular fraction isolated from intramuscular fat of an Angus steer.
To assess the adipocyte differentiation state, the cells of a 12-well plate were stained with “Oil Red O” and after conveniently extraction of the dye from the lipid droplets the absorbance was measured with a microplate reader.
Cells of a bovine stromal-vascular fraction from intramuscular fat (passage 4) of one flask (75 cm^2) were trypsinized by treating the adherent cells with 2 ml 0.25% Trypsin-EDTA. The reaction was stopped with growth medium (DMEM, 1% (v/v) of antibiotic solution, 50 μg/ml gentamicin sulfate, 33 μM biotin, 17 μM D-pantothenate, 100 μM (+)-sodium L-ascorbate and 10% FCS heat inactivated) and 1.5 ml of this cell suspension were added to each well of a 12-well-plate. Cells were incubated at 37° C./5% CO2 in an incubator.
One day after cells reach confluency the growth medium was removed and adipogenesis initiation medium (growth medium/0.25 μM Dexamethasone/10 μg/ml Insulin/1 μM rosiglitazone) was added into 2 wells (i.e., in duplicate) without further compounds. Adipogenesis initiation medium additionally containing 0.1 μM ATRA was added into 2 wells without further compounds and alternative with 1 μM of compound No. 1, compound No. 3, compound No. 4 and compound No. 5 into 2 wells each of the 12-well plate.
After incubation for three days, the adipogenesis initiation medium was removed and 1.5 ml adipogenesis medium (growth medium/10 μg/ml Insulin/1 μM rosiglitazone) containing the substances as indicated above was added per well. The culture medium was replaced twice a week.
Thirteen days after addition of adipogenesis initiation medium the medium was removed and cells of the 12-well plate were fixed and stained with Oil Red O as previously described.
The absorbance is reported in Table 3 and FIG. 2 as the difference of the observed OD of extracted dye at 530 nm and a blank well OD value.

[3] = biological target: T1, RARγ (Homo sapiens, UniProt P13631); test: luciferase based RA responsive reporter assay, RARγ; type: cell-based; conditions: antagonist
T1 sequence (P13631 1-454): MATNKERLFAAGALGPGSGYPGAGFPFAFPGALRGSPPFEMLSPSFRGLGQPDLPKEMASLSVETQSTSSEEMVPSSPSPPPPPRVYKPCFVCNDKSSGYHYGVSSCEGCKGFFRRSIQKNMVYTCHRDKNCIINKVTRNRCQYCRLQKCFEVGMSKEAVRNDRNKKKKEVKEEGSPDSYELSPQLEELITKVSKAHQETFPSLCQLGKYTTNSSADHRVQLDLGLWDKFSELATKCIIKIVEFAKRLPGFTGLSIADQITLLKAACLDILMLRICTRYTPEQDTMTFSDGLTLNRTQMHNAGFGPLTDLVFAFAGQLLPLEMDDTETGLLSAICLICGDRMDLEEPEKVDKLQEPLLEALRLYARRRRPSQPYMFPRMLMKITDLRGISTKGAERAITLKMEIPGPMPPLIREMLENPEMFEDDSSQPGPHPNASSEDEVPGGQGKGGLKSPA

[4] = biological target: T2, RARα (Homo sapiens, UniProt P10276); test: luciferase based RA responsive reporter assay, RARα; type: cell-based; conditions: antagonist
T2 sequence (P10276 1-462): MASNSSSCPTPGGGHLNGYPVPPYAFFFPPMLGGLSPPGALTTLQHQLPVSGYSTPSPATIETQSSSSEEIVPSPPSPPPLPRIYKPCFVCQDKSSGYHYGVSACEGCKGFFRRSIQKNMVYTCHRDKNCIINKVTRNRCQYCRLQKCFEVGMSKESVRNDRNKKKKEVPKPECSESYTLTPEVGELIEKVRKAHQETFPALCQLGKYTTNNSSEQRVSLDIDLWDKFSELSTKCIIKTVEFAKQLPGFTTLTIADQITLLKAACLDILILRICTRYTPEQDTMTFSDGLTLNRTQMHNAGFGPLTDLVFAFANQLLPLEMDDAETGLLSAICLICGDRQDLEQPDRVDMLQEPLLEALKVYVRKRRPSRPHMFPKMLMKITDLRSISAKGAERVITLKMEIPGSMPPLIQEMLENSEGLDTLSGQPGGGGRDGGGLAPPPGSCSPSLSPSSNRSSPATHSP

[5] = biological target: T3, RARβ (Homo sapiens, UniProt P10826); test: luciferase based RA responsive reporter assay, RARβ; type: cell-based; conditions: antagonist
T3 sequence (P10826 1-455): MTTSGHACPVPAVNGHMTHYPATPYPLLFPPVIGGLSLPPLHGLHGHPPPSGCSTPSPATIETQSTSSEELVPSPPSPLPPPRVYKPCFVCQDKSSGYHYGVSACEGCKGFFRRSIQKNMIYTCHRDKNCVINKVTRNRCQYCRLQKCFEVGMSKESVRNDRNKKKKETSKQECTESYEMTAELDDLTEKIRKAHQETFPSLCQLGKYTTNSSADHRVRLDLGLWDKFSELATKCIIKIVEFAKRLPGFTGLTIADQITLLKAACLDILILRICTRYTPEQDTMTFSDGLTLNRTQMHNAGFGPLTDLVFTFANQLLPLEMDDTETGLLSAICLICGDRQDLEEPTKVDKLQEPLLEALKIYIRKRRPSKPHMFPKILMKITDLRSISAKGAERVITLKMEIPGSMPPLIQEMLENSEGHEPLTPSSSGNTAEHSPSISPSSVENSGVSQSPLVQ

[6] = tested on: RARs; test: agonistic activity on RARs; type: cell-based

Row | Compound | Oil Red O absorbance (OD minus blank), well1 ([1]; 1 μM compound + 0.1 μM ATRA) | Oil Red O absorbance (OD minus blank), well2 ([1]; 1 μM compound + 0.1 μM ATRA) | Oil Red O absorbance (OD minus blank), average ([1]; 1 μM compound + 0.1 μM ATRA) | lipid accumulation compared with control cells ([2]; 1 μM compound + 0.1 μM ATRA) | Oil Red O absorbance (OD minus blank), well1 ([2]; 1 μM compound + 0.1 μM ATRA) | Oil Red O absorbance (OD minus blank), well2 ([2]; 1 μM compound + 0.1 μM ATRA) | Oil Red O absorbance (OD minus blank), average ([2]; 1 μM compound + 0.1 μM ATRA) | also measured
1 | CC1=C(/C=C/C(C)=C/C=C/C(C)=C/C(=O)O)C(C)(C)CCC1 [ATRA, all-trans retinoic acid] | – | – | – | – | – | – | – | amount of differentiated lipid-containing adipocytes ([1]; ATRA 0.1 μM alone): significantly reduced; Oil Red O absorbance (OD minus blank), well1 ([1]; ATRA 0.1 μM alone): 0.0925; Oil Red O absorbance (OD minus blank), well2 ([1]; ATRA 0.1 μM alone): 0.0727; Oil Red O absorbance (OD minus blank), average ([1]; ATRA 0.1 μM alone): 0.0826; Oil Red O absorbance (OD minus blank), well1 ([2]; ATRA 0.1 μM alone): 0.1409; Oil Red O absorbance (OD minus blank), well2 ([2]; ATRA 0.1 μM alone): 0.1924; Oil Red O absorbance (OD minus blank), average ([2]; ATRA 0.1 μM alone): 0.1667; amount of Oil Red O stainable lipid droplets ([2]; ATRA 0.1 μM alone, bovine cells): clearly decreased
2 | Cc1ccc(C2=CCC(C)(C)c3ccc(C#Cc4ccc(C(=O)O)cc4)cc32)cc1 [Compound No. 1] | 0.1736 | 0.1792 | 0.1764 | lipid accumulation of control cells is not reached | 0.2849 | 0.3493 | 0.3171 | –
3 | Cc1ccc(C2=CC(C)(C)Oc3c(Br)cc(C(=O)Nc4cc(F)c(C(=O)O)c(F)c4)cc32)cc1 [Compound No. 2] | 0.2264 | 0.2267 | 0.2266 | – | – | – | – | –
4 | CC1(C)CC=C(c2cnc3ccccc3c2)c2cc(C(=O)Nc3ccc(C(=O)O)cc3)ccc21 [Compound No. 3] | 0.3589 | 0.2996 | 0.3293 | lipid accumulation of control cells is not reached | 0.3504 | 0.4044 | 0.3774 | –
5 | Cc1ccc(C2=CC(C)(C)Oc3c(Br)cc(C(=O)Nc4ccc(C(=O)O)cc4)cc32)cc1 [Compound No. 4, 4-[[8-bromo-2,2-dimethyl-4-(p-tolyl)chromene-6-carbonyl]amino]benzoic acid] | 0.3361 | 0.3571 | 0.3466 | – | 0.5411 | 0.6229 | 0.5820 | pIC50 [3]: 5.63; pIC50 [4]: 8.40; pIC50 [5]: 5.53; agonistic activity on RARs [6]: lacks any significant agonistic activity
6 | CN1c2cc3c(cc2N=C(c2ccc(C(=O)O)cc2)c2ccc4ccccc4c21)C(C)(C)CCC3(C)C [Compound No. 5] | – | – | – | lipid accumulation of control cells is not reached | 0.2915 | 0.3318 | 0.3117 | –

From US20140094512A1, “METHOD OF MODULATING THE DEGREE OF ADIPOSE TISSUE DEPOSITED INTRAMUSCULARLY” (priority 2012, published 2014)
